According to ChEMBL document CHEMBL2429821, “A Casein kinase 1/Checkpoint kinase 1 pyrazolo-pyridine protein kinase inhibitor as novel activator of the p53 pathway” (Bioorg Med Chem Lett, 2013):
The source made the active and inactive calls. No cut-off for these calls is given here.

Legend:
[1] = tested on: A-375; experiment: Cell cycle arrest in human A375 cells assessed as accumulation at G2-M phase at 40 uM after 48 hrs by FACS flow cytometric analysis (reference value: 17.3%); format: functional
[2] = tested on: A-375; experiment: Cell cycle arrest in human A375 cells assessed as accumulation at S phase at 40 uM after 48 hrs by FACS flow cytometric analysis (reference value: 25.1%); format: functional
[3] = tested on: A-375; experiment: Cytotoxicity against human A375 cells assessed as reduction in cell number at 5 uM after 24 hrs by light microscopic analysis relative to control; format: functional, cell-based
[4] = tested on: A-375; experiment: Cell cycle arrest in human A375 cells assessed as accumulation at G0-G1 phase at 20 uM after 48 hrs by FACS flow cytometric analysis (reference value: 55.4%); format: functional
[5] = tested on: A-375; experiment: Cell cycle arrest in human A375 cells assessed as accumulation at sub-G1 phase at 40 uM after 48 hrs by FACS flow cytometric analysis (reference value: 2.17%); format: functional
[6] = tested on: A-375; experiment: Cell cycle arrest in human A375 cells assessed as accumulation at G0-G1 phase at 40 uM after 48 hrs by FACS flow cytometric analysis (reference value: 55.4%); format: functional
[7] = tested on: A-375; experiment: Cell cycle arrest in human A375 cells assessed as accumulation at sub-G1 phase at 20 uM after 48 hrs by FACS flow cytometric analysis (reference value: 2.17%); format: functional
[8] = target: T1, Casein kinase I/MDM2 (Homo sapiens) (UniProt Q00987+P48729); experiment: Inhibition of CK1-MDM2 complex in human A375 cells assessed as increase in MDM2 protein level at 0.2 to 5 uM after 48 hrs by immunoblotting analysis; format: cell-based; details: A-375
T1 sequence (P48729 whole entry, looked up): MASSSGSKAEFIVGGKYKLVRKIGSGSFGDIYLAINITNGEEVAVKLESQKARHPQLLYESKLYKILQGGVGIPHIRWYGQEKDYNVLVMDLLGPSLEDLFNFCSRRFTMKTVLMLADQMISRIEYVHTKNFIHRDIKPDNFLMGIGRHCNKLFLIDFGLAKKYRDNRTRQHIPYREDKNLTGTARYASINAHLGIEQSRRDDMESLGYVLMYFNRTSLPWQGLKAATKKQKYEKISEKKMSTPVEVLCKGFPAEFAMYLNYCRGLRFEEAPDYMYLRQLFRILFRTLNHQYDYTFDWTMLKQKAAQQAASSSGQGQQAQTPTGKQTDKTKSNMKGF
T1 sequence (Q00987 whole entry, looked up): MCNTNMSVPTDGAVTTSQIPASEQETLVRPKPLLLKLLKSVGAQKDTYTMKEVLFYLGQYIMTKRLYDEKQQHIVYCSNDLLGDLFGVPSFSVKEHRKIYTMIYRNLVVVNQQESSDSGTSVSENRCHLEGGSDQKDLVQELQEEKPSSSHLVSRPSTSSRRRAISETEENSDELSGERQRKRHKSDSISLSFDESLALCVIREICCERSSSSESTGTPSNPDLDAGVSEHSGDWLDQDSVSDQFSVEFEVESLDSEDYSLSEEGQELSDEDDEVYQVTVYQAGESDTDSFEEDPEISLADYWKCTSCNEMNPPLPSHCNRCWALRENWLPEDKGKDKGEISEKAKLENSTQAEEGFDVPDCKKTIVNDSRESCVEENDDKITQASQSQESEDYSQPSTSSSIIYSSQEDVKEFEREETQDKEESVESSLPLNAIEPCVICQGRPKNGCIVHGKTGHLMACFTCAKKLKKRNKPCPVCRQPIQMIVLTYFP

[9] = tested on: A-375; experiment: Cell cycle arrest in human A375 cells assessed as accumulation at G0-G1 phase at 10 uM after 48 hrs by FACS flow cytometric analysis (reference value: 55.4%); format: functional
[10] = target: Fibroblast growth factor receptor 1 (Homo sapiens, UniProt P11362); experiment: Inhibition of human FGFR1 in presence of 20 uM ATP
Fibroblast growth factor receptor 1, sequence (P11362 whole entry): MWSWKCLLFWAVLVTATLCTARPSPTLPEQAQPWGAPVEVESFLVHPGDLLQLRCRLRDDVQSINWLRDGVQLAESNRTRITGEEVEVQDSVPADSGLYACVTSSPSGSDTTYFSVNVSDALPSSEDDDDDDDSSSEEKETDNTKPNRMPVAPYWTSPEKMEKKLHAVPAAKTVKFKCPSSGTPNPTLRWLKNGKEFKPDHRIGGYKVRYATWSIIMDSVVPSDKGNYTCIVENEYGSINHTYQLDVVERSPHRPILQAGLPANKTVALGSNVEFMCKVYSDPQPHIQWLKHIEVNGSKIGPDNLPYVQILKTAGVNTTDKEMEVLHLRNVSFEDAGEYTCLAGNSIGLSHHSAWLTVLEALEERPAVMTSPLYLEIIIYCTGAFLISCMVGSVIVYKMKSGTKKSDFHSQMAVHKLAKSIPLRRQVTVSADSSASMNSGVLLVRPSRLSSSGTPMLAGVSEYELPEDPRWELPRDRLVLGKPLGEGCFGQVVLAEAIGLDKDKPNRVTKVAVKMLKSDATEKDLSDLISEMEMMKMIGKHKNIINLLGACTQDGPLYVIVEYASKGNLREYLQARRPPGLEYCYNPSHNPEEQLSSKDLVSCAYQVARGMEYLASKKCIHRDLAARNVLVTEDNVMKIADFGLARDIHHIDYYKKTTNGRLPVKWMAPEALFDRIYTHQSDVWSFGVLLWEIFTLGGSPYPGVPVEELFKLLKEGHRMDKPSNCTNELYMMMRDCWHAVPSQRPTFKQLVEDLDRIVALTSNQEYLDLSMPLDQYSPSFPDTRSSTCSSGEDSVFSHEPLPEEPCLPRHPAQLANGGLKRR

[11] = tested on: A-375; experiment: Cell cycle arrest in human A375 cells assessed as accumulation at G2-M phase at 20 uM after 48 hrs by FACS flow cytometric analysis (reference value: 17.3%); format: functional
[12] = tested on: A-375; experiment: Cell cycle arrest in human A375 cells assessed as accumulation at sub-G1 phase at 5 uM after 48 hrs by FACS flow cytometric analysis (reference value: 2.17%); format: functional
[13] = target: T1, Casein kinase I/MDM2 (Homo sapiens); experiment: Inhibition of CK1-MDM2 complex in human A375 cells assessed as decrease in […] protein level at 0.2 to 5 uM after 48 hrs by immunoblotting analysis; format: cell-based; details: A-375
[14] = tested on: A-375; experiment: Cell cycle arrest in human A375 cells assessed as accumulation at G0-G1 phase at 1 uM after 48 hrs by FACS flow cytometric analysis (reference value: 55.4%); format: functional
[15] = tested on: A-375; experiment: Cell cycle arrest in human A375 cells assessed as accumulation at sub-G1 phase at 1 uM after 48 hrs by FACS flow cytometric analysis (reference value: 2.17%); format: functional
[16] = target: T1, Casein kinase I/MDM2 (Homo sapiens); experiment: Inhibition of CK1-MDM2 complex in human A375 cells assessed as increase in p21 protein level at 0.2 to 5 uM after 48 hrs by immunoblotting analysis; format: cell-based; details: A-375
[17] = tested on: A-375; experiment: Cell cycle arrest in human A375 cells assessed as accumulation at S phase at 5 uM after 48 hrs by FACS flow cytometric analysis (reference value: 25.1%); format: functional
[18] = tested on: A-375; experiment: Cell cycle arrest in human A375 cells assessed as accumulation at G0-G1 phase at 5 uM after 48 hrs by FACS flow cytometric analysis (reference value: 55.4%); format: functional
[19] = tested on: A-375; experiment: Cell cycle arrest in human A375 cells assessed as accumulation at G2-M phase at 1 uM after 48 hrs by FACS flow cytometric analysis (reference value: 17.3%); format: functional
[20] = tested on: HCT-116; experiment: Cytotoxicity against p53-deficient human HCT116 cells assessed as cell viability at 1 to 32 uM after 24 hrs by MTT assay; format: functional, cell-based
[21] = tested on: HCT-116; experiment: Cytotoxicity against human HCT116 cells expressing p53 assessed as cell viability at 1 to 32 uM after 24 hrs by MTT assay; format: functional, cell-based
[22] = target: Mitogen-activated protein kinase 15 (Homo sapiens, UniProt Q8TD08); experiment: Inhibition of human ERK8 in presence of 5 uM ATP
Mitogen-activated protein kinase 15, sequence (Q8TD08 whole entry): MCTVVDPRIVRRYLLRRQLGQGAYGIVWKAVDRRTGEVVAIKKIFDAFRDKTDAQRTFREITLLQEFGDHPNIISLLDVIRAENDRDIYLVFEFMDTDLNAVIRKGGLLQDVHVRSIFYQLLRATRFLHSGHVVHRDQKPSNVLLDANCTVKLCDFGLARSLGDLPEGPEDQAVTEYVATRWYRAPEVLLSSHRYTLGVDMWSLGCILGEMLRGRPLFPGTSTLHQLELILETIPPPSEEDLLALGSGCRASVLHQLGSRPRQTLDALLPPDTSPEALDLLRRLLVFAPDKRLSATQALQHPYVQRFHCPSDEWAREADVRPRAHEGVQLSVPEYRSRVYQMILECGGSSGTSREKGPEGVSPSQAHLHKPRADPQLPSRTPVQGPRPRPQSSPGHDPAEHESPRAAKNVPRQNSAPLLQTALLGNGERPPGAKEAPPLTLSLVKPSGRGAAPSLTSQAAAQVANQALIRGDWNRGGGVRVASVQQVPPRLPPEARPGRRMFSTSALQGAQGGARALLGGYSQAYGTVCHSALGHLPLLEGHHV

[23] = tested on: A-375; experiment: Cell cycle arrest in human A375 cells assessed as accumulation at G2-M phase at 10 uM after 48 hrs by FACS flow cytometric analysis (reference value: 17.3%); format: functional
[24] = tested on: A-375; experiment: Cell cycle arrest in human A375 cells assessed as accumulation at S phase at 1 uM after 48 hrs by FACS flow cytometric analysis (reference value: 25.1%); format: functional
[25] = target: Mitogen-activated protein kinase 14 (Homo sapiens, UniProt Q16539); experiment: Inhibition of human p38alpha MAPK assessed as residual activity at 10 uM relative to control
Mitogen-activated protein kinase 14, sequence (Q16539 whole entry): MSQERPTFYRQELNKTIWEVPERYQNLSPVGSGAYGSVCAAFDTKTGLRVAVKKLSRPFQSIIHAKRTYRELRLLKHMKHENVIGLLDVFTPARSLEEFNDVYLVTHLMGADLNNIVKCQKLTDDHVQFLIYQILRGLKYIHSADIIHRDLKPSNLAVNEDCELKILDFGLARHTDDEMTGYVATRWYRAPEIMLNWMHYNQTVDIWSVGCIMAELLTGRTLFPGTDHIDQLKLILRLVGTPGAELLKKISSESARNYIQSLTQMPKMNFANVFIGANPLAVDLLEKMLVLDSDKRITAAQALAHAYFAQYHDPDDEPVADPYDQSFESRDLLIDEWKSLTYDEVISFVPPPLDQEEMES

[26] = target: T1, Casein kinase I/MDM2 (Homo sapiens); experiment: Inhibition of CK1-MDM2 complex in human A375 cells assessed as increase in […] protein level at 0.2 to 40 uM after 24 hrs by immunoblotting analysis; format: cell-based; details: A-375
[27] = target: T1, Casein kinase I/MDM2 (Homo sapiens); experiment: Inhibition of CK1-MDM2 complex in human A375 cells assessed as increase in p53 protein level at 0.2 to 40 uM after 24 hrs by immunoblotting analysis; format: cell-based; details: A-375
[28] = target: T1, Casein kinase I/MDM2 (Homo sapiens); experiment: Inhibition of CK1-MDM2 complex in human A375 cells assessed as effect on p21 protein level at 0.2 to 40 uM after 24 hrs by immunoblotting analysis; format: cell-based; details: A-375
[29] = target: T1, Casein kinase I/MDM2 (Homo sapiens); experiment: Inhibition of CK1-MDM2 complex in human A375 cells assessed as increase in p21 protein level at 5 to 40 uM compound transfected into cells using attractene carrier after 48 hrs by immunoblotting analysis; format: cell-based; details: A-375
[30] = target: T1, Casein kinase I/MDM2 (Homo sapiens); experiment: Inhibition of CK1-MDM2 complex in human A375 cells assessed as effect on p53 protein level at 0.2 to 80 uM after 48 hrs by immunoblotting analysis; format: cell-based; details: A-375
[31] = target: T1, Casein kinase I/MDM2 (Homo sapiens); experiment: Inhibition of CK1-MDM2 complex in human A375 cells assessed as increase in p53 protein level at 5 to 40 uM compound transfected into cells using attractene carrier after 48 hrs by immunoblotting analysis; format: cell-based; details: A-375
[32] = target: T1, Casein kinase I/MDM2 (Homo sapiens); experiment: Inhibition of CK1-MDM2 complex in human A375 cells assessed as effect on MDM2 protein level at 0.2 to 80 uM after 48 hrs by immunoblotting analysis; format: cell-based; details: A-375

SMILES: CC(=O)Nc1cccc(-c2cnc3[nH]nc(C)c3c2)c1
- Activity [1]: 8.54%
- Activity [2]: 14%
- Activity [3]: Active
- Activity [4]: 25.1%
- Activity [5]: 56.7%
- Activity [6]: 16.9%
- Activity [7]: 50.5%
- inhibition [8]: Active
- Activity [9]: 39.6%
- IC50 [10]: 6 µM
- Activity [11]: 9.65%
- Activity [12]: 19.1%
- inhibition [13]: Active
- Activity [14]: 57.7%
- Activity [15]: 2.37%
- inhibition [16]: Active
- Activity [17]: 13.7%
- Activity [18]: 50.8%
- Activity [19]: 17.8%
- Activity [20]: Active
- Activity [21]: Active
- IC50 [22]: 0.4 µM
- Activity [23]: 12.8%
- Activity [24]: 21.6%

SMILES: CCCC(=O)Nc1n[nH]c2ncc(-c3cccnc3)cc12
- Activity [25]: 91%
- inhibition [26]: Active
- inhibition [27]: Active
- inhibition [28]: inactive

SMILES: CC(=O)Nc1nccc(-c2c(-c3ccccc3)noc2C)n1
- inhibition [29]: inactive
- inhibition [30]: inactive
- inhibition [31]: inactive
- inhibition [32]: inactive
